# Source: a melting point compilation (Tetko et al.; mined from patent text by program, amines drawn as free bases though some values may be those of a salt)
row,melting point [°C],Structure (SMILES)
1,88 to 91,COC1C(O)C(CO)OC1n1cnc2c(NC3CCCCC3)ncnc21 (stereo not drawn)
2,76 to 78,CCn1cc(-c2cc(-c3nc(C(C)C)[nH]c3-c3cccc(C)n3)ccc2F)cn1
3,81,COc1cccc(Cc2oc3ccc(OC)cc3c2CC#N)c1
4,208 to 210,ON=C1CSc2ccccc2CN1
5,108 to 110,COc1ccc(CCc2ccncc2N)cc1OC1CCCC1
6,89 to 91,Cc1c(NC(=O)OC(C)(C)C)cnn1-c1cccnc1
7,65 to 105,O=C(O)CCC(CC=Cc1cccc(Cl)c1)(C(=O)C=Cc1ccc(Cl)cc1)c1ccccc1 (stereo not drawn)
8,133 to 134,O=C(O)Cc1ccccc1OCCCc1cn(-c2ccc(C(F)(F)F)cn2)nc1-c1ccccc1
9,101 to 102,COC(=O)c1nc2ccccc2o1
10,104 to 106,Cc1ccc(S(=O)(=O)N(C)c2ccc(C)c([N+](=O)[O-])c2)cc1
11,346,Cn1cc(C(=O)O)c(=O)c2c3cc(F)c(N4CCN(c5ccc(F)cc5)CC4)cc3ncc21
12,143 to 144,CC(F)(F)c1cccc(C[C@H]2NC(=O)O[C@H]2c2ccc(F)cc2)c1 (racemic)
13,328 to 332,CCOc1ccccc1C=C1CCc2c1nc1ccc(C(=O)O)cn1c2=O
14,128 to 130,CCCCCCCCCCNC(=O)C1=C(C(=O)Nc2cc(OC3CCCC3)c(Cl)cc2F)CCCC1
15,123 to 125,COc1cc([N+](=O)[O-])ccc1-c1sc(C)nc1C
16,207 to 209,CC1=C(C#N)C(c2ccccc2C(F)(F)F)c2c(ccnc2OC(C)C)N1 (stereo not drawn)
17,> 260,CCc1cc(OC)c(-c2csc(NC(=O)c3cc4ccccc4[nH]3)n2)c(OC)c1
18,253 to 254,CC(=O)c1ccc2c(c1)ncn2-c1cccc(-c2cncnc2)c1
19,228,COc1ccc(C(=O)NCc2ccccc2)c2c1oc1ccc(N)cc12
20,220 to 223,OCc1nnc(-c2ccc(-c3ccccc3)cc2)n1-c1ccccc1F
21,253 to 255,O=C1CC2(C(=O)N1)C(=O)N1CCCc3cccc2c31 (stereo not drawn)

row,melting point [°C],Structure (SMILES)
1,97 to 100,CC#CCOc1ccc(S(=O)(=O)N(C)C(C(=O)NO)C(C)(C)SCCn2ccnc2)cc1 (stereo not drawn)
2,128 to 130,Cc1noc2ccc(Oc3ncccc3C(=O)NCc3ccc(C(C)(C)O)cc3)cc12
3,119 to 121,O=C(NCCc1ccc(Cl)cc1)C1=C(NCCc2ccc(Cl)cc2)CS(=O)(=O)N(Cc2ccc(Cl)c(Cl)c2)c2ccccc21
4,169 to 170,CNc1ccc2cc(Br)ccc2c1[N+](=O)[O-]
5,229,CC(C)(C)c1cc(-c2n[nH]c(=O)s2)cc(C(C)(C)C)c1O
6,84,COC(=O)c1ccc(OC)c2c1OCCO2
7,> 300,O=c1[nH]c2ccc(Cn3ccnc3)cc2[nH]c1=O
8,123,COc1cc(Nc2nccc(-c3ccc(NCCO)nc3)n2)cc(OC)c1OC
9,173,N#CC1(C#N)C2C=CC(C2)C1(Cl)C(F)(F)F (stereo not drawn)
10,232,Cc1cncc(-c2ccc3c(=O)c(C(=O)O)cn(C4CC4)c3c2C)c1
11,198 to 204,COc1cc(OC)nc(C2(O)OC(=O)c3c(-c4ccco4)ccnc32)n1 (stereo not drawn)
12,126 to 128,NC(=O)N(O)CCNC(=O)c1cccc(Oc2cccc(C(F)(F)F)c2)c1
13,45 to 47,CCCCCC(=O)C=Cc1ccc(CCCCCCCCCC(=O)OC)s1
14,169 to 171,NC(=O)N1CCCC2=C1CCc1cc(Cl)ccc12
15,228 to 229,C/C(=C\c1ccc(C(F)(F)F)cc1)C(=O)Nc1cc(Cl)ccc1C(=O)O
16,273 to 274,COc1ccc2c(c1)[nH]c1cc(OC)ccc12
17,216 to 217,CC(=O)Nc1cc(-c2sc(-c3ccc(S(C)(=O)=O)cc3)nc2-c2cccc(Cl)c2)ccn1
18,69 to 70,COc1ccccc1C=Cc1ccccc1
19,145 to 147,COC(=O)C1=C(C)NC(C(C)O)=C(C(=O)OC)C1c1ccccc1Cl (stereo not drawn)
20,120 to 122,COc1ccc(C2(O)CCNCC2)cc1
21,100,O=C(c1sccc1-n1cccc1)N1CCOCC1

row,melting point [°C],Structure (SMILES)
1,130 to 132,C=CCN1CCN2c3ccccc3Cn3cccc3C2C1 (stereo not drawn)
2,214 to 216,CC(C)C1(C)N=C2c3nc4sccc4cc3C(=O)N2C1=O (stereo not drawn)
3,192 to 193,O=C(O)c1cccc(-c2ccc3c(c2)C(c2ccc(Cl)cc2Cl)CO3)c1 (stereo not drawn)
4,270 to 278,Cc1c(Cc2ccc(Cl)cc2)c(=O)oc2cc(O)cc(O)c12
5,203 to 204,CC(Oc1ccc(C(=O)O)cc1)c1ccccc1OCc1ccccc1 (stereo not drawn)
6,205 to 207,COc1ccc(-c2nc(C)c(NC(=O)c3nnn[nH]3)s2)cc1
7,104 to 106,COCCSc1cc2c(N3CCc4ccc(Cl)cc43)ncnc2cc1Cl
8,171,CC(=O)N(C1=C(Cl)C(=O)c2c(cnn2C)C1=O)C1CC1
9,110 to 111,COc1ccc(Oc2ccc(C(=O)CC(SC(C)=O)C(=O)O)cc2)cc1 (stereo not drawn)
10,130 to 132,O=C1CC2CCCC3(C2)c2cccn2CCN13 (stereo not drawn)
11,54 to 64,COCCN1CCc2cc(Nc3ncc(Cl)c(Nc4ccccc4S(=O)(=O)N(C)C)n3)c(OC)cc2CC1
12,257 to 259,CCc1c2c(nn1C)c(N)nc1ccccc12
13,70 to 75,CN1CC2CN(C)CC(C1)C2OCc1ccccc1 (stereo not drawn)
14,> 260,COC(=O)c1ccc(C=Cc2cnc3nc(NC(=O)C(C)(C)C)nc(O)c3c2)[nH]1
15,198 to 200,O=[N+]([O-])c1cc(-c2ccoc2)ccc1Nc1cc(-n2ccnc2)ncn1
16,67.7,COn1c(C)nc2cc(C(=O)c3ccccc3)ccc21
17,102,COc1ccc(CC(=O)Cc2c(OC)cc(OC)c(CC=C(C)C)c2OCC(=O)O)cc1
18,174 to 180,Nc1cccc(C(=O)CN2CCN(c3ccc(CO)c(Cl)c3)CC2)c1
19,88 to 90,C=C(C)C(=O)OCCN(CCOC(=O)C(=C)C)c1ccc(N=Nc2ccc([N+](=O)[O-])cc2)cc1
20,78 to 80,CCCCNC(=O)CCC(=O)c1ccccc1

row,Structure (SMILES),melting point [°C]
1,O=C1N(CC2CCC2)c2ccccc2C1(O)c1ccc2c(c1)OCO2 (stereo not drawn),124 to 125
2,CCOP1(=O)OCC(C)(C)c2cc(OS(C)(=O)=O)ccc2O1 (stereo not drawn),113 to 115
3,CCN1CCC(O)(c2ccc(F)c(Cl)c2)C1 (stereo not drawn),157 to 158
4,NP(N)(=O)NC(=O)c1ccc2ccccc2c1,> 400
5,CN1CCN(Cc2nc3ccccc3[nH]2)CC1,179 to 183
6,COc1cc(Cl)ccc1CBr,42 to 45
